Measurements: US8022091B2, “Triazole derivative” (Taisho Pharmaceutical Co., Ltd., priority 2006, dated 2011)

What was measured:
[1] = molecular target: T1, human Edg-1 (S1P1) (Homo sapiens, UniProt P21453); experiment: S1P1 binding assay: inhibition of [33P]-S1P binding to membrane fraction of HEK-293 cells transferred with the human Edg-1 (S1P1) gene; details: for inhibition at 10 µM: test compound at 10 μM, inhibition of [33P]-S1P binding to the membrane fraction of HEK-293 cells expressing human Edg-1 (S1P1); for IC50: [33P]-S1P 0.1 nM, human Edg-1 (S1P1) HEK-293 membrane fraction, 1 h at 30° C., read-out: IC50 (concentration at which binding in the absence of the test compound was inhibited by 50%)
T1 construct: expressed in transfected cells; host or cells: HEK-293
T1 sequence (P21453 whole entry): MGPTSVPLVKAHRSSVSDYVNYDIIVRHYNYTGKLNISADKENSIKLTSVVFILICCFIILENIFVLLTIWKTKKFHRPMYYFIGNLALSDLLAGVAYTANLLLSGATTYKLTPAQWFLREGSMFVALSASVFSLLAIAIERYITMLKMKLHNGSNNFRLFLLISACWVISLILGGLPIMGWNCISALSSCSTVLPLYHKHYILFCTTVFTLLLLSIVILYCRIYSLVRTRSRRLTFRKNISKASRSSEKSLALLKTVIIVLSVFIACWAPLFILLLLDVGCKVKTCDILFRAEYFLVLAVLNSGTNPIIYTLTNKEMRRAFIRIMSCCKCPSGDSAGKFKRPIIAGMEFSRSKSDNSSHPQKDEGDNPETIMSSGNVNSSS
Summary of the method: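 With 0.1 nM [33P]-S1P and compound (10^−5M single point, or a concentration range for IC50) in 0.1% DMSO, membrane fractions from human Edg-1-expressing HEK-293 cells were treated for one hour at 30° C in 20 mM Tris-HCl pH 7.4 with NaF, deoxypyridoxine and BSA. Bound label was measured after filtration, with untransfected-cell background subtracted.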

| melting point | inhibition at 10 µM [1] | IC50 [1] | SMILES |
| --- | --- | --- | --- |
| 178 to 179 °C | 90.7% |  | CCn1c(Oc2ccc3ncccc3c2)nnc1[C@@H](C)NS(=O)(=O)c1ccc(Cl)c(Cl)c1 [Compound 78] |
| 190 to 195 °C | 104% |  | CCn1c(Oc2cccc(N3CCCC3)c2)nnc1[C@@H](C)NS(=O)(=O)c1ccc(Cl)c(Cl)c1 [Compound 79] |
| 164 to 165 °C | 87.6% |  | CCn1c(Oc2cc(C)nc(C)c2)nnc1[C@@H](C)NS(=O)(=O)c1ccc(Cl)c(Cl)c1 [Compound 80] |
| 160 to 165 °C | 93.2% |  | CCn1c(Oc2ccc3c(c2)N=S=N3)nnc1[C@@H](C)NS(=O)(=O)c1ccc(Cl)c(Cl)c1 [Compound 81] |
| 142 to 145 °C | 101% |  | CCn1c(Oc2cccc(N)c2)nnc1[C@@H](C)NS(=O)(=O)c1ccc(Cl)c(Cl)c1 [Compound 82, N-[(R)-1-[5-(3-Amino-phenoxy)-4-ethyl-4H-[1,2,4]triazol-3-yl]-ethyl]-3,4-dichlorobenzenesulfonamide] |
| 170 to 173 °C | 101% | 8.1 nM | CCn1c(Oc2cccc(N3CCN(CCN(C)C)CC3)c2)nnc1[C@@H](C)NS(=O)(=O)c1ccc(Cl)c(Cl)c1 [Compound 83] |
| 160 to 165 °C | 100% |  | CCn1c(Oc2cccc(NC(C)=O)c2)nnc1[C@@H](C)NS(=O)(=O)c1ccc(Cl)c(Cl)c1 [Compound 84] |
| 133 to 134 °C | 100% |  | CCn1c(Oc2cccc(-n3ccnc3)c2)nnc1[C@@H](C)NS(=O)(=O)c1ccc(Cl)c(Cl)c1 [Compound 85] |
| 176 to 177 °C | 107% |  | CCn1c(Oc2cccc(-n3cccc3)c2)nnc1[C@@H](C)NS(=O)(=O)c1ccc(Cl)c(Cl)c1 [Compound 86, 3,4-Dichloro-N-[(R)-1-[4-ethyl-5-(3-pyrrol-1-phenoxy)-4H-[1,2,4]triazol-3-yl]-ethyl]-benzenesulfonamide] |

The remaining lines, values behind:

| SMILES | melting point | inhibition at 10 µM [1] | IC50 [1] |
| --- | --- | --- | --- |
| CCn1c(Oc2ccc3c(c2)CCC(=O)N3)nnc1[C@@H](C)NS(=O)(=O)c1ccc(Cl)c(Cl)c1 [Compound 68] | 212 to 223 °C | 101% |  |
| CCn1c(Oc2cccc(OC)c2)nnc1[C@@H](C)NS(=O)(=O)c1ccc(Cl)c(Cl)c1 [Compound 69] | 119 to 120.5 °C | 103% | ≤ 35 nM |
| CCN(CC)c1cccc(Oc2nnc([C@@H](C)NS(=O)(=O)c3ccc(Cl)c(Cl)c3)n2CC)c1 [Compound 70] | 144 to 146 °C | 96.5% | ≤ 10 nM |
| CCn1c(Oc2cccc(C)n2)nnc1[C@@H](C)NS(=O)(=O)c1ccc(Cl)c(Cl)c1 [Compound 71] | 126 to 135 °C | 99.3% |  |
| CCn1c(Oc2ccc3cccnc3c2)nnc1[C@@H](C)NS(=O)(=O)c1ccc(Cl)c(Cl)c1 [Compound 72] | 198 to 200.5 °C | 99% |  |
| CCn1c(Oc2cccc(N3CCCCC3)c2)nnc1[C@@H](C)NS(=O)(=O)c1ccc(Cl)c(Cl)c1 [Compound 73] | 185 to 187 °C | 103% | 2.2 nM |
| CCn1c(Oc2ccc3c(c2)NC(=O)CC3)nnc1[C@@H](C)NS(=O)(=O)c1ccc(Cl)c(Cl)c1 [Compound 74] | 218.5 to 227 °C | 105% | 15 nM |
| CCn1c(Oc2cccc(N3CCC3)c2)nnc1[C@@H](C)NS(=O)(=O)c1ccc(Cl)c(Cl)c1 [Compound 75] | 177 to 179 °C | 95% | ≤ 10 nM |
| CCn1c(Oc2cccc(N3C[C@@H](C)O[C@@H](C)C3)c2)nnc1[C@@H](C)NS(=O)(=O)c1ccc(Cl)c(Cl)c1 [Compound 76] | 151.5 to 153.5 °C | 99.2% | ≤ 35 nM |
| CCn1c(Oc2cc(C(F)(F)F)n(C)n2)nnc1[C@@H](C)NS(=O)(=O)c1ccc(Cl)c(Cl)c1 [Compound 77] | 123 to 127 °C | 99.7% |  |
